{
  "source": "patent US20190314407A1",
  "about": "“COMPOSITIONS AND METHODS FOR THE EXPANSION OF HEMATOPOIETIC STEM AND PROGENITOR CELLS” (Magenta Therapeutics Inc., priority 2017, published 2019)",
  "key": {"NSG mice [1]": {"system": "NSG mice", "test": "Transplant of expanded cells into sub-lethally irradiated NSG mice, engraftment and editing rates by flow cytometry (Example 1)", "type": "in vivo, mouse", "conditions": "for engraftment in NSG mice: relative to vehicle-cultured CB derived CD34+ cells", "method": "(§1) Methods. […] Cell number and immunophenotype were assessed by flow cytometry, and HSC function was evaluated by cell and molecular assays in vitro. The expanded cells were transplanted into sub-lethally irradiated NSG mice to evaluate engraftment potential in vivo. For editing studies, mPB and BM CD34+ cells were electroporated with CRISPR/Cas9 RNPs targeting the beta-2 microglobulin (B2M) cell surface protein. Editing rates were evaluated by flow cytometry based on loss of protein expression and TIDE analysis. Edited cells were expanded in the presence of AHR antagonist or vehicle and transplanted into NSG mice. The AHR antagonist used in the experiments described in this Example is Compound 26 herein. Engraftment and editing rates were evaluated by flow cytometry of the peripheral blood and bone marrow."}, "[2]": {"system": "primary human CD34+ cells", "test": "Ex vivo expansion of primary human CD34+ cells in the presence of cytokines (Example 1)", "type": "cell-based", "conditions": "relative to vehicle-cultured CB derived CD34+ cells", "method": "as §1"}, "[3]": {"system": "mPB and BM derived CD34+ cells", "test": "Expansion of CRISPR/Cas9 B2M-edited mPB and BM CD34+ cells (Example 1)", "type": "cell-based, human", "conditions": "7 days of expansion, AHR antagonist = Compound 26", "method": "as §1"}, "[4]": {"system": "CD34+CD90+ mobilized peripheral blood cells", "test": "Cell cycle phase of CD34+CD90+ cells in culture, mobilized peripheral blood (Example 5)", "type": "cell-based", "conditions": "cytokines, same in presence or absence of Compound 26 (500 nM)"}, "NSG mice [5]": {"system": "NSG mice", "test": "Transplant of gene-modified, expanded CD34+ cells into NSG mice (Example 2)", "type": "in vivo, mouse", "conditions": "AHR antagonist = Compound 26", "from_the_text": "Transplant into NSG mice: All of the progeny from cultured cells were transplanted into sub-lethally irradiated, female, 6-8 week old NSG mice. Engraftment and transduction/editing rates were monitored monthly by flow cytometry. “Minimally manipulated” controls were transplanted one day after editing for a total culture time of 2 days."}, "AHR": {"target": "T1, AHR (Homo sapiens, UniProt P35869)", "T1 sequence (P35869 11-848)": "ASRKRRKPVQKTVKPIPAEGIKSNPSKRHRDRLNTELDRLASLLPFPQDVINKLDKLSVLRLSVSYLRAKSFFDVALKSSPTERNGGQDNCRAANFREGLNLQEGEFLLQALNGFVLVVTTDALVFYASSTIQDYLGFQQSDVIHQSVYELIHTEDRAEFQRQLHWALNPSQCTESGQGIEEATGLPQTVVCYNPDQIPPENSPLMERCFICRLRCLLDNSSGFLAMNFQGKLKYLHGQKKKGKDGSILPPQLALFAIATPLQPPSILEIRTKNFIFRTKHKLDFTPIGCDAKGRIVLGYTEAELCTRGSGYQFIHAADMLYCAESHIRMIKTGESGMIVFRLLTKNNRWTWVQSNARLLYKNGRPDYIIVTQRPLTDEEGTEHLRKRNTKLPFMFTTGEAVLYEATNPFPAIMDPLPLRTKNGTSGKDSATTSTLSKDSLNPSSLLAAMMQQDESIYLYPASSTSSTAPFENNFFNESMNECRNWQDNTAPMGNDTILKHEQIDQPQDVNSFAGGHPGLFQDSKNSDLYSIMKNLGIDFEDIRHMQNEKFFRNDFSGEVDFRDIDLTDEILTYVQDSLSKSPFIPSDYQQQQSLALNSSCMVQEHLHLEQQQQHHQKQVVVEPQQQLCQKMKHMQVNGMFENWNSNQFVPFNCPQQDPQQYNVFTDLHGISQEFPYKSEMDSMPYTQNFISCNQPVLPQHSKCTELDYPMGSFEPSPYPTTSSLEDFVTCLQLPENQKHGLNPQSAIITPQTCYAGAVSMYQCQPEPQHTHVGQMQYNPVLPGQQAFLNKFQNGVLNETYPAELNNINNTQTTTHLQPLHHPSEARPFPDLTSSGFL", "test": "Dioxin response element luciferase reporter assay", "type": "cell-based"}, "[6]": {"system": "CD34+CD90+ cord blood cells", "test": "Cell cycle phase of CD34+CD90+ cells in culture, cord blood (Example 5)", "type": "cell-based", "conditions": "cytokines, same in presence or absence of Compound 26 (500 nM)"}, "[7]": {"system": "CD34+ cells from mPB and bone marrow (BM)", "test": "Ex vivo expansion of lentivirally transduced or CRISPR/Cas9 B2M-edited CD34+ cells (Example 2)", "type": "cell-based, human", "conditions": "AHR antagonist = Compound 26", "method": "Lentiviral Transduction: Cryopreserved CD34+ cells from mobilized peripheral blood (mPB) were thawed and cultured overnight in media with cytokines and either vehicle (DMSO) or the AHR antagonist (expanded). The following day, cells were plated on retronectin-coated plates and transduced with a lentiviral vector, containing a green fluorescent protein (GFP) transgene under the control of the MND promoter, at an MOI of 50 in the presence of vehicle or the AHR antagonist. 24 hours later, cells were harvested, washed, and resuspended in media with cytokines and the appropriate compound.\nCRISPR/Cas9 Editing and Expansion: Cryopreserved CD34+ cells from mPB and bone marrow (BM) were thawed and cultured overnight in media with cytokines and either vehicle or the AHR antagonist. Cells were electroporated with Cas9 protein (Aldevron) and synthetic, chemically-modified gRNA (Synthego) targeting beta-2-microglobulin (B2M) as a ribonucleotide protein (RNP)."}, "[8]": {"system": "mobilized peripheral blood (mPB) CD34+ cells", "test": "Gene correction rate after prestimulation and electroporation with gRNA/Cas9 and oligonucleotide donor (Example 5)", "type": "cell-based", "conditions": "mPB cells prestimulated 4 days in the presence of Compound 26 versus 1 day prior to electroporation; FIG. 13A", "method": "Mobilized peripheral blood (mPB) CD34+ or cord blood (CB) CD34+ cells were thawed and pre-stimulated, i.e., cultured, in serum-free media (SFEM media supplemented with cytokines SCF, IL6, TPO, and FLT3L) in the presence or absence of Compound 26 (500 nM). Cells were pre-stimulated 1, 2, 3, or 4 days prior to electroporation with gRNA/Cas9 and oligonucleotide donor. Cells were cultured for an additional 8 days after electroporation and profiled at 2, 4, 6, or 8 days post-electroporation using a Trucount-based method of HSC quantification of CD34, CD90, and CD45RA. Cells were subcultured to maintain cell density at less than 1×10^6 cells/mL. On day 8, genomic DNA was extracted from bulk cell cultures, and correction rate was assessed by qPCR. Number of corrected cells was determined by number of total cells at the indicated timepoint multiplied by the correction rate for that pre-stimulation condition."}, "[9]": {"conditions": "B2M-edited expanded cells, AHR antagonist = Compound 26"}, "[10]": {"conditions": "mPB CD34+ cells, 7 days culture, FIGS. 2A-2D"}},
  "data": [
    {"smiles": "CC(C)n1cnc2c(NCCc3ccc(O)cc3)nc(-c3csc4ccccc34)nc21", "note": "[SR1, reference compound]", "values": [
      {"measurement": "engraftment in NSG mice", "setting": "NSG mice [1]", "value": "significant increase"},
      {"measurement": "increase in CD34+ number", "setting": "[2]", "value": 6, "unit": "fold"}
    ]},
    {"smiles": "COCCC(C)c1cnc2c(NCCc3c[nH]c4ccccc34)nc(-c3cncc(F)c3)cn12", "note": "(stereo not shown) [Compound 26]", "values": [
      {"measurement": "CD34+CD90+ cells in expanded culture versus vehicle-treated cells", "setting": "[3]; B2M-edited cells", "value": 3.4, "unit": "fold"},
      {"measurement": "loss of the target protein (B2M)", "setting": "[3]; mPB and BM CD34+ cells edited with CRISPR/Cas9 RNPs", "value": 84, "unit": "%"},
      {"measurement": "days in culture after which substantially all CD34+CD90+ cells exit the G0 phase and enter the replicative cell cycle", "setting": "[4]", "value": "about 3 days"},
      {"measurement": "retention of B2M− phenotype relative to vehicle-treated cells following transplantation", "setting": "NSG mice [5]; NSG mice", "value": "greater retention"},
      {"measurement": "improvement in engraftment compared to vehicle-cultured cells", "setting": "NSG mice [5]; edited, expanded cells, both the PB and BM of mice after 16 weeks", "value": "greater than 2 fold"},
      {"measurement": "engraftment rates relative to minimally-manipulated cells", "setting": "NSG mice [5]; expanded, edited mPB and BM cells, FIGS. 7A-7N", "value": "higher engraftment rates"},
      {"measurement": "editing rates following transplantation into NSG mice", "setting": "NSG mice [5]; mPB and BM CD34+ cells", "value": "maintained"},
      {"measurement": "engraftment compared to minimally manipulated and vehicle controls", "setting": "NSG mice [5]; mPB and BM hematopoietic stem cells transplanted into NSG mice", "value": "increased engraftment"},
      {"measurement": "engraftment rates relative to vehicle-cultured cells", "setting": "NSG mice [5]; transduced/edited, expanded mPB cells in NSG mice", "value": "higher engraftment rates"},
      {"measurement": "human cells in the periphery of the mice showing loss of target protein (average)", "setting": "NSG mice [1]; [9]", "value": "> 75", "unit": "%"},
      {"measurement": "increase in engraftment compared to mice receiving vehicle-treated cells", "setting": "NSG mice [1]; [9]", "value": "greater than 2 fold"},
      {"measurement": "engraftment in NSG mice", "setting": "NSG mice [1]", "value": "significant increase"},
      {"measurement": "AHR antagonism in the dioxin response element luciferase reporter assay", "setting": "AHR", "value": "complete AHR antagonism"},
      {"measurement": "increase in potency compared to SR1", "setting": "AHR; dioxin response element luciferase reporter assay", "value": 12, "unit": "fold"},
      {"measurement": "days in culture after which substantially all CD34+CD90+ cells exit the G0 phase and enter the replicative cell cycle", "setting": "[6]", "value": "about 3 days"},
      {"measurement": "quantity of GFP+CD34+CD90+ cells", "setting": "[7]; GFP lentivirus-transduced mPB CD34+ cells, 7 days, versus vehicle or no treatment", "value": "increased the quantity of GFP+CD34+CD90+ cells to a greater extent than vehicle treatment"},
      {"measurement": "editing rates", "setting": "[7]; both mPB and BM CD34+ cells, CRISPR/Cas9 B2M", "value": 80, "unit": "%"},
      {"measurement": "quantities of total cells, CD34+ cells, and CD34+CD90+ cells relative to vehicle-treated and untreated cells", "setting": "[7]; cells subject to CRISPR/Cas9-mediated B2M editing, FIGS. 5A-5E", "value": "substantially higher quantities"},
      {"measurement": "quantities of total cells, CD34+ cells, and CD34+CD90+ cells relative to vehicle-treated and untreated cells", "setting": "[7]; cells subject to lentiviral transduction, FIGS. 3A-3E", "value": "substantially higher quantities"},
      {"measurement": "quantity of CD34+CD90+ cells relative to vehicle-treated and untreated cells", "setting": "[7]; [10]", "value": "substantial increase"},
      {"measurement": "total quantity of cells relative to vehicle-treated cells", "setting": "[7]; [10]", "value": "increase in the total quantity of cells"},
      {"measurement": "rates of gene correction", "setting": "[8]", "value": "higher rates of gene correction"},
      {"measurement": "increase in CD34+ number", "setting": "[2]", "value": 6, "unit": "fold"}
    ]}
  ]
}
